Values of other authors as cited in patent US12274791B2, “Multiple unit dosage form having a therapeutic agent in combination with a nutritional supplement” (Bonafide Health, LLC, priority 2007, dated 2025).
Where two headings read alike, the source gives them in different places.

Compound	toxic effects (rat, in vivo)	toxic effects (rats, levels several thousand times the upper limit of the ESADDI for chromium for humans (based on body weight))
Chromium picolinate	without toxic effects	
[Cl][Cr]([Cl])[Cl] [chromium chloride]		without toxic effects
